# Peptide text beside a SMILES is read from it.
# Key:
# bovine brain calmodulin [1] = target: T1, bovine brain calmodulin (Bos taurus, UniProt P62157); experiment: stopped-flow measurement of kisom of calmodulin-binding peptides; settings: changes in tryptophan fluorescence
# T1 construct: Complexes between calmodulin from bovine brain (1 μM, Sigma); purchased Sigma; host or cells: bovine brain (tissue-derived)
# Excerpt: It has been shown by Torok and Trentham (1994) that smooth muscle MLCK-derived peptides bind to calmodulin with a biphasic kinetic according to the scheme: [drawing 1]
# in which P is the peptide, C is calmodulin, P-C is the first complex formed on association of P and C, which then undergoes a conformational isomerisation to P-C*.
# (§1) For a kinetic and thermodynamic characterisation of the binding of the peptides of the present invention to bovine brain calmodulin, we have measured the kinetic isomerisation, association, and dissociation constants from which dissociation constants can be derived.
# kisom constants have been measured by stopped-flow, detecting changes in tryptophan fluorescence for all the peptides except 3 (SEQ ID NO:4), in which the tryptophan is replaced by alanine.
# bovine brain calmodulin [2] = target: T1, bovine brain calmodulin; experiment: BIAcore surface plasmon resonance, kon and koff of calmodulin binding to biotinylated peptides; settings: for koff / kon: BIAcore; for koff: read-out: koff (s^-1)^B; for kon: read-out: kon (s^-1 M^-1)^B
# Excerpt: as §1
# koff =k-1·k-2 /(k+2 +k-2)
# (§2) Real-time interaction analysis by surface plasmon resonance on a BIAcore instrument (Jonsson et al., 1991) was used to determine kon and koff constants. Biotinylated peptides 1-17 were bound to commercially available streptavidin-coated microsensor chips (Pharmacia Biosensor), in order to achieve a surface capacity of 100-200 surface plasmon resonance units of calmodulin bound. Different concentrations of calmodulin (5, 10, 20, 50 and 100 nM in the order of FIG. 2) were injected and allowed to associate with the peptides. Regeneration of the surface was achieved by injection of 5 μl TBS+[…] which dissociates the calmodulin-peptide complex.
# calmodulin [3] = target: T2, calmodulin (Bos taurus, UniProt P62157); experiment: koff by competition experiments, native PAGE of fluorescein-labelled peptide/calmodulin complexes; format: binding, bovine; set-up: Complexes between calmodulin from bovine brain (1 μM, Sigma); purchased Sigma; host or cells: bovine brain (tissue-derived); settings: competition with 30-fold excess unlabelled peptide, room temperature, gel buffer; read-out: koff (s^-1)^C
# Protocol: Complexes between calmodulin from bovine brain (1 μM, Sigma) and fluorescein-labelled sMLCK-derived peptides (as described in Table 1 (SEQ ID NOS:2-18)) were prepared in gel buffer (25% gel mix [4 g sucrose+1 mg bromophenol blue in water to give a 10 ml solution]+75% TBSC [50 mM TRIS pH 7.4, […]+50 μM CaCl2)] and run on a 15% native PAGE gel (5 ml 30% acrylamide-bisacrylamide solution+4.5 ml water+0.5 ml 3M Tris, pH 8.8, +1 μl 1M CaCl2 polymerised with 30 μl 25% ammonium persulphate and 9 μl TEMED) using 14.4 g/l glycine+3 g/l Tris-base+0.1 mM CaCl2 as running buffer. Peptides were labelled either with iodoacetamido fluorescein (Molecular Probes) or with iodoacetamido-LC-biotin (Pierce) essentially as previously described by Neri et al., (1995). In these conditions, the fluorescence of the positively-charged labelled peptides can be detected only if they form a stable complex with calmodulin.
# (§3) In order to obtain an independent experimental confirmation if the BIAcore results, koff constants for peptides 1-17 towards calmodulin were determined by competition experiments. 30 nM fluorescein-labelled peptide/calmodulin complexes in gel buffer were competed at room temperature for different times with 30-fold excess of unlabelled peptide. The resulting mixtures were run on native PAGE gels and imaged by LUANA as described above. The bands in the image obtained were integrated using the LUANA software (Neri et al., 1996) and the corresponding intersities plotted versus time and fitted with a single exponential, from which koff constants were derived. In order to normalise band intensities against pipetting errors, the samples contained 6 nM free fluorescein which ran with the front. The fluorescein bands were integrated and used to normalise the calmodulin/fluorescent peptide complex band intensity. The results of competitions for peptides 1, 2, 3, 6, 9, and 14 are shown in this FIG. 3. Incubation time in minutes is indicated under the lanes.
# The volumes of the bands were plotted versus competition time and fitted to a single exponential, from which koff values were derived.
# The fastest competitions (peptides 1-4, 9 and 13, SEQ ID NOS:2-5,10, and 14) were over by the time the calmodulin/fluorescent peptide complex entered the gel (approximately 5-10 minutes from pipetting a molar excess of unlabelled peptide; FIG. 3), from which a condition on the off-rate constant koff >1×10^-3 s^-1 was derived. Even for these fast off-rates, complexes can be detected by native polyacrylamide gel electrophoresis because of the well known gel "cage effect" (Fried and Crothers, 1981; Garner and Revzin, 1981).
# calmodulin [4] = target: T2, calmodulin; experiment: kinetic analysis of N9 replacement peptides and multiple mutant by the methods of Examples 3 and 4; format: binding
# Protocol: as §2, with “Biotinylated peptides 1-17 were bound to commercially available streptavidin-coated microsensor chips (Pharmacia Biosensor), in order to achieve a surface capacity of 100-200 surface plasmon resonance units of calmodulin bound.” left out
# as §3, with “30” for “In order to obtain an independent experimental confirmation if the BIAcore results, koff constants for peptides 1-17 towards calmodulin were determined by competition experiments. 30”, “The results of competitions for peptides 1, 2, 3, 6, 9, and 14 are shown in this FIG. 3.” left out
# Hydrophobic donor residues (valine, phenylalanine and leucine) were chosen because it was hypothesized that these residues would contribute to the stability of the hydrophobic environment in the calmodulin core.
Compound,kisom. (s^-1)^A (bovine brain calmodulin [1]),koff (bovine brain calmodulin [2]) [s⁻¹],kon (bovine brain calmodulin [2]) [M⁻¹ s⁻¹],koff (calmodulin [3]) [s⁻¹],"koff (calmodulin [4]; Table II, N9 replacement) [s⁻¹]","kon (calmodulin [4]; Table II, N9 replacement) [M⁻¹ s⁻¹]",also measured
CC[C@H](C)[C@H](NC(=O)[C@H](C)NC(=O)[C@H](CCCCN)NC(=O)[C@H](Cc1ccccc1)NC(=O)[C@H](CCCNC(=N)N)NC(=O)[C@H](CC(N)=O)NC(=O)[C@H](C)NC(=O)[C@H](C)NC(=O)[C@H](CO)NC(=O)[C@@H](NC(=O)[C@H](C)NC(=O)[C@@H](NC(=O)[C@H](Cc1ccccc1)NC(=O)[C@H](CC(N)=O)NC(=O)[C@H](CCCCN)NC(=O)[C@H](CCCCN)NC(=O)[C@H](Cc1c[nH]c2ccccc12)NC(=O)[C@H](CCCNC(=N)N)NC(=O)[C@H](C)NC(=O)[C@H](C)NC(=O)[C@H](C)NC(=O)[C@@H](N)CS)[C@@H](C)CC)C(C)C)C(=O)N[C@@H](CO)C(N)=O [Peptide 15] (H-CAAARWKKNFIAVSAANRFKAIS-NH2; N-terminus assumed),1.2 (10.3) × 10^-1 s^-1,0.00022,1.1e+06,0.00021,–,–,–
CC[C@H](C)[C@H](NC(=O)[C@H](Cc1ccccc1)NC(=O)[C@H](CC(N)=O)NC(=O)[C@H](CCCCN)NC(=O)[C@H](CCCCN)NC(=O)[C@H](Cc1c[nH]c2ccccc12)NC(=O)[C@H](CCCNC(=N)N)NC(=O)[C@H](C)NC(=O)[C@H](C)NC(=O)[C@H](C)NC(=O)[C@@H](N)CS)C(=O)N[C@@H](C)C(=O)N[C@H](C(=O)N[C@@H](CO)C(=O)N[C@@H](C)C(=O)N[C@@H](C)C(=O)N[C@@H](CC(N)=O)C(=O)N[C@@H](CCCNC(=N)N)C(=O)N[C@@H](Cc1ccccc1)C(=O)N[C@@H](CCCCN)C(=O)N[C@@H](CCCCN)C(=O)N[C@@H](C)C(=O)N[C@@H](CO)C(N)=O)C(C)C [Peptide 16] (H-CAAARWKKNFIAVSAANRFKKAS-NH2; N-terminus assumed),8.7 (11.5) × 10^-2 s^-1,0.00031,810000,0.00028,–,–,–
CC[C@H](C)[C@H](NC(=O)[C@H](CCCCN)NC(=O)[C@H](CCCCN)NC(=O)[C@H](Cc1ccccc1)NC(=O)[C@H](CCCNC(=N)N)NC(=O)[C@H](CC(N)=O)NC(=O)[C@H](C)NC(=O)[C@H](C)NC(=O)[C@H](CO)NC(=O)[C@@H](NC(=O)[C@H](C)NC(=O)[C@@H](NC(=O)[C@H](Cc1ccccc1)NC(=O)[C@H](CC(N)=O)NC(=O)[C@H](CCCCN)NC(=O)[C@H](CCCCN)NC(=O)[C@H](Cc1c[nH]c2ccccc12)NC(=O)[C@H](CCCNC(=N)N)NC(=O)[C@H](C)NC(=O)[C@H](C)NC(=O)[C@H](C)NC(=O)[C@@H](N)CS)[C@@H](C)CC)C(C)C)C(=O)N[C@@H](C)C(N)=O [Peptide 17] (H-CAAARWKKNFIAVSAANRFKKIA-NH2; N-terminus assumed),1.3 (10.4) × 10^-1 s^-1,0.00013,820000,7e-05,–,–,"improvement of koff with respect to wild type, in words (bovine brain calmodulin [2]): largest improvements; improvement in Kd / affinity for calmodulin over the wild type peptide, in words (bovine brain calmodulin [2]; Table 1): greatest improvement in Kd"
CC[C@H](C)[C@H](NC(=O)[C@H](CCCCN)NC(=O)[C@H](C)NC(=O)[C@H](Cc1ccccc1)NC(=O)[C@H](CCCNC(=N)N)NC(=O)[C@H](CC(N)=O)NC(=O)[C@H](C)NC(=O)[C@H](C)NC(=O)[C@H](C)NC(=O)[C@@H](NC(=O)[C@H](C)NC(=O)[C@@H](NC(=O)[C@H](Cc1ccccc1)NC(=O)[C@H](C)NC(=O)[C@H](CCCCN)NC(=O)[C@H](CCCCN)NC(=O)[C@H](Cc1c[nH]c2ccccc12)NC(=O)[C@H](CCCNC(=N)N)NC(=O)[C@H](C)NC(=O)[C@H](C)NC(=O)[C@H](C)NC(=O)[C@@H](N)CS)[C@@H](C)CC)C(C)C)C(=O)N[C@@H](C)C(N)=O [SEQ ID NO:19] (H-CAAARWKKAFIAVAAANRFAKIA-NH2; N-terminus and C-terminus assumed),–,–,–,–,–,–,"affinity for calmodulin compared with other peptides, in words (calmodulin [4]): comparable to that of peptide 6; koff (calmodulin [4]; multiple mutant): 5.9e-06 s⁻¹; kon (calmodulin [4]; multiple mutant): 610000 M⁻¹ s⁻¹"
CC[C@H](C)[C@H](NC(=O)[C@H](Cc1ccccc1)NC(=O)[C@@H](NC(=O)[C@H](CCCCN)NC(=O)[C@H](CCCCN)NC(=O)[C@H](Cc1c[nH]c2ccccc12)NC(=O)[C@H](CCCNC(=N)N)NC(=O)[C@H](C)NC(=O)[C@H](C)NC(=O)[C@H](C)NC(=O)[C@@H](N)CS)C(C)C)C(=O)N[C@@H](C)C(=O)N[C@H](C(=O)N[C@@H](CO)C(=O)N[C@@H](C)C(=O)N[C@@H](C)C(=O)N[C@@H](CC(N)=O)C(=O)N[C@@H](CCCNC(=N)N)C(=O)N[C@@H](Cc1ccccc1)C(=O)N[C@@H](CCCCN)C(=O)N[C@@H](CCCCN)C(=O)N[C@H](C(=O)N[C@@H](CO)C(N)=O)[C@@H](C)CC)C(C)C [a] (H-CAAARWKKVFIAVSAANRFKKIS-NH2; N-terminus and C-terminus assumed),–,–,–,–,0.00035,850000,–
CC[C@H](C)[C@H](NC(=O)[C@H](Cc1ccccc1)NC(=O)[C@H](Cc1ccccc1)NC(=O)[C@H](CCCCN)NC(=O)[C@H](CCCCN)NC(=O)[C@H](Cc1c[nH]c2ccccc12)NC(=O)[C@H](CCCNC(=N)N)NC(=O)[C@H](C)NC(=O)[C@H](C)NC(=O)[C@H](C)NC(=O)[C@@H](N)CS)C(=O)N[C@@H](C)C(=O)N[C@H](C(=O)N[C@@H](CO)C(=O)N[C@@H](C)C(=O)N[C@@H](C)C(=O)N[C@@H](CC(N)=O)C(=O)N[C@@H](CCCNC(=N)N)C(=O)N[C@@H](Cc1ccccc1)C(=O)N[C@@H](CCCCN)C(=O)N[C@@H](CCCCN)C(=O)N[C@H](C(=O)N[C@@H](CO)C(N)=O)[C@@H](C)CC)C(C)C [b] (H-CAAARWKKFFIAVSAANRFKKIS-NH2; N-terminus and C-terminus assumed),–,–,–,–,2.9e-05,290000,–
CC[C@H](C)[C@H](NC(=O)[C@H](Cc1ccccc1)NC(=O)[C@H](CC(C)C)NC(=O)[C@H](CCCCN)NC(=O)[C@H](CCCCN)NC(=O)[C@H](Cc1c[nH]c2ccccc12)NC(=O)[C@H](CCCNC(=N)N)NC(=O)[C@H](C)NC(=O)[C@H](C)NC(=O)[C@H](C)NC(=O)[C@@H](N)CS)C(=O)N[C@@H](C)C(=O)N[C@H](C(=O)N[C@@H](CO)C(=O)N[C@@H](C)C(=O)N[C@@H](C)C(=O)N[C@@H](CC(N)=O)C(=O)N[C@@H](CCCNC(=N)N)C(=O)N[C@@H](Cc1ccccc1)C(=O)N[C@@H](CCCCN)C(=O)N[C@@H](CCCCN)C(=O)N[C@H](C(=O)N[C@@H](CO)C(N)=O)[C@@H](C)CC)C(C)C [c] (H-CAAARWKKLFIAVSAANRFKKIS-NH2; N-terminus and C-terminus assumed),–,–,–,–,2.3e-05,1.1e+06,–

# From patent publication US6316409A, “Modified ligands of calcium-dependent binding proteins” (Medical Research Council, priority 1996, dated 2001)
